In patent US12329733B2, “Acetyl-leucine or a pharmaceutically acceptable salt thereof for improved mobility and cognitive function” (INTRABIO LTD., priority 2016, dated 2025):
Entries after “also recorded” stand apart in the source; their conditions may differ.

What was measured:
[1] = tested on: subjects (cognitive function); test: subject and family reports of cognitive function and alertness; type: in vivo, human; settings: for Details on Subjective Improvement / Subjective Improvement on treatment?: 5 g/day
Text: “Cognitive function” can mean any mental process that involves a symbolic operation, for example, perception, memory, creation of imagery, awareness, reasoning, thinking and capacity for judgment. Measures of cognitive functioning include assessment tools designed to measure, for example: (a) general intelligence, (b) nonverbal intelligence, (c) achievement, (d) attention/executive functioning, (e) memory and learning, (f) visual-motor and motor functioning and (g) language. Such assessment tools are well-known in the art and include, for example, Wechsler Adult Intelligence Scale and Woodcock-Johnson III Tests of Cognitive Abilities (both for assessing general intelligence), Raven Progressive Matrices (for assessing nonverbal intelligence), Wide Range Achievement Test and Woodcock-Johnson III Tests of Achievement (for assessing academic achievement), Conners' Continuous Performance Test II (for assessing attention/executive functioning), Wide Range Assessment of Memory and Learning (for assessing memory and learning), Bender Visual-Motor Gestalt Test, Halstead-Reitan Grip Strength Test, Halstead-Reitan Finger Tapping Test and Lafayette Grooved Pegboard Task (all for assessing visual-motor and motor functioning) and Peabody Picture Vocabulary Test (for assessing language).

[2] = tested on: patients with gait disorder; test: quantitative gait analysis (“gait-rite”, video); type: in vivo, human
[3] = tested on: patient with postural imbalance; test: maximal distance to walk; type: in vivo, human; settings: Example 6: person; 5 g/day (2/1.5/1.5 g) for 1 month; baseline 1 km
Text: The patient was examined clinically by means of the following clinical assessments: maximal distance to walk; timed Up and Go test; Scale for the Assessment and Rating of Ataxia (SARA).
(§1) Baseline (prior to commencement of treatment): Maximal distance to walk until the patient could not walk anymore because of fatigue was 1 km. The […] up-and-go test yielded 25.4 sec. SARA yielded 6.5/40. […] Tandem stance and gait was not possible to perform due to an increased fall risk. Mean timed 8-meter-walking test was 6.5 sec.

[4] = tested on: patient with postural imbalance; test: timed 8-meter-walking test; type: in vivo, human; settings: Example 6: 5 g/day for 1 month; baseline 6.5 sec
Text: as §1

[5] = tested on: subjects / patients; test: adverse effects / tolerability; type: in vivo, human; settings: for tolerability: 3 g/day one week then 5 g/day; for Adverse Effects: 5 g/day
[6] = tested on: patients with Niemann-Pick type C; settings: 12 patients, ref (7); cited from earlier work
[7] = tested on: patients with cerebellar ataxia of different etiologies; settings: in responders, ref (8); cited from earlier work
[8] = Example 1: person, 4.5 g/day, after 2-3 weeks of treatment

CC(=O)NC(CC(C)C)C(=O)O (racemic) [acetyl-DL-leucine]
cognition after ceasing treatment ([1]; Example 1: after one-month course ceased): gradually declined to their pre-treatment status over one month | alertness on waking (subject's description) [1, 8]: fully alert on waking | cognitive function, spatial awareness and general demeanor (family) [1, 8]: significant improvement in their cognitive function, spatial awareness and general demeanor | confusion evident prior to treatment ([1]; Example 1: remains on 4.5 g per day): entirely absent | communication and executive function (family) ([1]; Example 6: 5 g/day for 1 month): executive function improved | energy, agility (subjective) ([1]; Example 6: 5 g/day for 1 month): more energy, was more agile and interactive | Details on Subjective Improvement ([1]; Example 7: 66 M): improvement in general alertness and a shortening of the time required to go from ‘asleep’ to ‘fully awake’ | Subjective Improvement on treatment? ([1]; Example 7: 66 M): Yes | Details on Subjective Improvement ([1]; Example 8: 29 M): improvement in general alertness. They also reported a decrease in anxiety | Subjective Improvement on treatment? ([1]; Example 8: 29 M): Yes | Details on Subjective Improvement ([1]; Example 9: 55 F): shortening of the time required to go from ‘asleep’ to ‘fully awake’ | Subjective Improvement on treatment? ([1]; Example 9: 55 F): Yes | Subjective Improvement on treatment? ([1]; Example 10: […]): no difference between on and off medication | Subjective Improvement on treatment? ([1]; Example 10: […], listed as acetyl-leucine): No | Details on Subjective Improvement ([1]; Example 11: 53 M): improvement in general alertness and a shortening of the time required to go from ‘asleep’ to ‘fully awake’ | Subjective Improvement on treatment? ([1]; Example 11: 53 M): Yes | Details on Subjective Improvement ([1]; Example 12: 48 F): feeling less tired than usual and taking less time than was usual to go from asleep to fully awake | Subjective Improvement on treatment? ([1]; Example 12: 48 F): Yes | video analysis of gait ([2]; Example 4: 3 weeks after beginning treatment): now even able to run | Coefficient of variation (CV) of stride time: CV = (standard deviation/mean) × 100 ([2]; Example 4: after 3 weeks' treatment, before treatment 1.6): 1.8 | Spreading width (distance between the heel center of one footprint to the line of movement of the other foot) ([2]; Example 4: after 3 weeks' treatment, before treatment 9.3): 8.1 cm | % of the time of two periods in the gait cycle in which both feet at the same time are in contact with the ground ([2]; Example 4: after 3 weeks' treatment, before treatment 27.2): 25.5% | Cadence ([2]; Example 4: after 3 weeks' treatment, before treatment 92): 100 steps/minute | Step cycle length (distance between two consecutive contacts of a foot on the ground) ([2]; Example 4: after 3 weeks' treatment, before treatment 116): 116 cm | Maximum walking speed (maximal gait velocity) ([2]; Example 4: after 3 weeks' treatment, before treatment 141): 157 cm/s | Natural walking speed (self-chosen gait velocity) ([2]; Example 4: person, after 3 weeks' treatment, before treatment 88): 96 cm/s | self-chosen gait velocity ([2]; Example 5: Day 42, 3 gram per day, from 55 cm/sec at Day 0): 62 cm/s | maximal gait velocity ([2]; Example 5: Day 42, 3 gram per day, from 84 cm/sec at Day 0): 130 cm/s | Maximal distance to walk [3]: 1.5 km | Mean timed 8-meter-walking test [4]: 4.4 s | side effects ([5]; Example 1: person, 4.5 g per day, over eighteen months): no side effects | tolerability ([5]; Example 3: person): well tolerated | tolerability ([5]; Example 4: person): very well tolerated | side effects ([5]; Example 6: 2 g/1.5 g/1.5 g per day dosage regimen): Sleepiness | side effects after dose reduction ([5]; Example 6: reduced to 1 g/1 g/1 g daily after 1 month, listed as Tanganil®): cease in these side-effect symptoms; also recorded: have not returned | Adverse Effects ([5]; Example 7: 66 M, first week on medication): mild dizziness/lightheadedness on one occasion | Adverse Effects ([5]; Example 8: 29 M, 4 weeks): None reported | Adverse Effects ([5]; Example 9: 55 F, 4 weeks): None reported | Adverse Effects ([5]; Example 10: 50 M, 2 weeks): None reported | Adverse Effects ([5]; Example 11: 53 M, 4 weeks): None reported | Adverse Effects ([5]; Example 12: 48 F, 4 weeks): None reported | ataxic symptoms [6]: improvement in ataxic symptoms | brain metabolism (PET) [7]: increased metabolism in the midbrain and lower brainstem
